From publication PMC8154525 (Journal of the American Chemical Society, 2021)

Test system: aminopeptidase M (Ap)
Test: Ap-catalyzed cleavage of H-Arg-AMC
Format: biochemical
Details: read-out: KM (Ap-catalyzed cleavage); substrate of aminopeptidase M

`Cc1cc(=O)oc2cc(NC(=O)[C@@H](N)CCCN=C(N)N)ccc12` [H-Arg-AMC] gave a Km of 5 mM.
